Experimental data reported in publication PMC9862096, “Interaction of a Homologous Series of Amphiphiles with P-glycoprotein in a Membrane Environment—Contributions of Polar and Non-Polar Interactions” (Pharmaceutics, 2023).
Read-outs that look alike come from different tables or passages of the source.

How the values were obtained:
mP–gp = biological target: T1, mP–gp (Mus musculus, UniProt P21447); assay: Photolabeling of P–gp with [125I]-IAAP / IAAP displacement; type: binding; conditions: for Ki: Equation (S2), total concentrations, native membranes 1.0 mg/mL, read-out: dissociation constant, competitive inhibition of IAAP binding
T1 construct: made in house; host or cells: High-Five insect cells (Invitrogen), recombinant baculovirus; total membrane vesicles
T1 sequence (P21447 whole entry): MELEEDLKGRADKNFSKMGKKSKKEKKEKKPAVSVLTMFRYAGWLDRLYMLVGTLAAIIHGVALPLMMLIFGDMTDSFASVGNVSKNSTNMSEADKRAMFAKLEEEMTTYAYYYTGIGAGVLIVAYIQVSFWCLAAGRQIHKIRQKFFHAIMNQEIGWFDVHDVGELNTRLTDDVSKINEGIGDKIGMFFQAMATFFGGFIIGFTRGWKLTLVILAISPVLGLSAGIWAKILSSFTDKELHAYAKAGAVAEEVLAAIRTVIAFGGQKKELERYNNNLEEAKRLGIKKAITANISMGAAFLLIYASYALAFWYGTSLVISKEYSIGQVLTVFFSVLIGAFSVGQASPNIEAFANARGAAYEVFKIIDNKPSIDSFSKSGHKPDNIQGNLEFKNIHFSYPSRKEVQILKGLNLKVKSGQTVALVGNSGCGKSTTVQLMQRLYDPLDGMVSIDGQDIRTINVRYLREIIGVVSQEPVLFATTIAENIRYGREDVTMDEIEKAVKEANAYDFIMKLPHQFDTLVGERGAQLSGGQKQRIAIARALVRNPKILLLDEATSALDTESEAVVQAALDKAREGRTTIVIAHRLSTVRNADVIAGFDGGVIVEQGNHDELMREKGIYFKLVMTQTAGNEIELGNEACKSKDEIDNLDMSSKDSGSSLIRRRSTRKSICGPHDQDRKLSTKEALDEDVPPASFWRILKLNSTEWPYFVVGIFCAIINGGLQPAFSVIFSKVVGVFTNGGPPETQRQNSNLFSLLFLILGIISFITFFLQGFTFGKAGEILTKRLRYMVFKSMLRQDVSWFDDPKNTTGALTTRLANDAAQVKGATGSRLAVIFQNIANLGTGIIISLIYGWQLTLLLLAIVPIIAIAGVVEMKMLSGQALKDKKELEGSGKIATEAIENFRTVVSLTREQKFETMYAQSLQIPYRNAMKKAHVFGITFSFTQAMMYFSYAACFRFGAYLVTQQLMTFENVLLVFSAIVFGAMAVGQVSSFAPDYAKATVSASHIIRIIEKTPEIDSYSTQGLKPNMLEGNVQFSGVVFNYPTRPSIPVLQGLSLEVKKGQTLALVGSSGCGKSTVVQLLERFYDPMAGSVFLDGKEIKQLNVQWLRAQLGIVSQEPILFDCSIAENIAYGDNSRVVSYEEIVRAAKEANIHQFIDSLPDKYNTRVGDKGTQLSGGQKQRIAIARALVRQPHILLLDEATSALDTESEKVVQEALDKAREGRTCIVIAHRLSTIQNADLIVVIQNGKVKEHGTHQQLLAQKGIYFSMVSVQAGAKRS
Protocol: The native membranes of High-Five insect cells expressing mP–gp (1.0 mg/mL) were incubated at room temperature with the indicated concentrations of the inhibitor for 5 min. IAAP (5 to 7 nM) was later added, and the reaction mixture was further incubated for 5 min under subdued light. The samples were photocross-linked with 366 nm UV light for 10 min at room temperature, followed by electrophoresis and quantification, as described previously. The raw data are shown in the Supplementary Information (Figure S4). The results were first analyzed with the usual equation, considering the total concentration of IAAP and NBD amphiphile, as well as competitive inhibition of IAAP binding, see Supplementary Information (Equation (S2)). The dissociation constant considered for IAAP was taken from the literature, 412 nM [15]. The results were also analyzed with a formalism derived in this manuscript considering the distribution of the NBD amphiphile in the distinct environments (aqueous phase, lipid bilayer, and P–gp), the distribution of IAAP between the aqueous media and P–gp, and several equal and independent binding sites in P–gp’s binding pocket, Equation (10).
In this assay, in addition to the binding of the NBD amphiphiles to P–gp binding pocket, it is also necessary to consider the binding of IAAP. The concentration of IAAP used in the assay (5 nM) is several orders of magnitude smaller than that of the amphiphiles in study, and it is also smaller than the total concentration of P–gp (59 nM). Therefore, Equation (8) may be used to calculate the concentration of free ligand and protein. The fraction of IAAP bound to P–gp may then be calculated from Equation (10), where P^* is the concentration of P–gp available for IAAP binding. (10) IP/IT=−b−b^2−4ac/2aa=1; b=−1+KdIAAP/IT+P^*/IT; c=P^*/IT
The number of binding sites in P–gp binding pocket was varied from 1 to 5, and three situations were considered in the analysis: (i) full inhibition of IAAP binding when at least one NBD amphiphile is in the P–gp binding pocket ( i≥1 ), corresponding to P^*=P; (ii) inhibition of IAAP binding only when P–gp is fully saturated ( i=n ), corresponding to P^*=P+∑i=1n−1PLi; and (iii) an intermediate situation with IAAP displacement for i≥n−1 , corresponding to P^*=P+∑i=1n−2PLi .
The displacement of IAAP from P–gp binding pocket was calculated from Equation (11), where IP0 is the concentration of IAAP bound to P–gp in the absence of the NBD amphiphiles. (11) IAAP displacement %=100IP0−IP/IP0

mouse P–gp (mP–gp) = biological target: T2, mouse P–gp (mP–gp) (Mus musculus, UniProt P21447); assay: P–gp ATPase activity (vanadate-sensitive, end point Pi release) in native membranes; type: biochemical; conditions: for Emax: read-out: V1, maximum activation; for Effect on P–gp ATPase activity: native membranes, Figure 1
T2 construct: made in house; host or cells: High-Five insect cells (Invitrogen), recombinant baculovirus; total membrane vesicles
T2 sequence (P21447 whole entry): as above
Protocol: High-Five insect cells (Invitrogen) were infected with recombinant baculovirus carrying mouse P–gp (mP–gp) gene (Abcb1a). Membrane vesicles were prepared by hypotonic lysis of the insect cells, followed by ultracentrifugation to collect the membrane vesicles, as described in detail in reference. The native membranes obtained were suspended in storage buffer (45 mM Tris-HCl pH 7.5, 45 mM D-mannitol, 1.8 mM EGTA, 0.45% v/v aprotinin, 1.8 mM DTT, 0.9 mM AEBSF, and 10% v/v glycerol), aliquoted, and stored at −80 °C or in liquid nitrogen until use. The concentration of protein in the native membranes was quantified by the Sherman and Weismann method using Amido Black B dye.
The ATPase activity of P–gp in the High-Five insect cell membranes was measured by the end point Pi release assays, as described earlier with minor modifications. Native membranes were diluted in ATPase assay buffer (final concentrations: 41.2 mM Tris-MES pH = 6.8, 50 mM KCl, 5 mM NaN3, 2 mM EGTA, 1.03 mM Ouabain, 2 mM DTT, and 10 mM MgCl2), and the modulators were added from stocks in DMSO (final DMSO 1% v/v). The final concentration of protein was quantified, being ca. 0.1 mg/mL. Four samples were prepared at each modulator concentration, containing ATP at 5 mM, two of which also contained vanadate at 0.3 mM. P–gp specific activity was measured as vanadate-sensitive ATPase activity. The basal rate of ATP hydrolysis was 67 ± 4 nmol Pi mgP^−1 min^−1, with 37 ± 4 nmol Pi mgP^−1 min^−1 being sensitive to vanadate. The results obtained for the effect of the modulators on the ATPase activity in the presence and absence of vanadate are shown in the Supplementary Information (Figure S1).
The results were then analyzed with the formalism derived in this manuscript considering the distribution of the modulator in the distinct environments (aqueous phase, lipid bilayer and P-gp) and several equal and independent binding sites in P-gp’s binding pocket, Equations (3)–(9). The best fit was obtained with nonlinear least-square analysis using Microsoft Excel.
For the correct analysis of the results, the distribution of the amphiphiles in the distinct environments (aqueous media, lipid bilayer, and P–gp) must be considered. In addition, excess ligand should not be assumed. When considering that P–gp has several binding sites, the kinetic scheme that describes P–gp saturation with ligand is given by Equation (5). For details, see, e.g., references. (5) LW↔KPW→LbLLb LLb=KPW→LbLW VLb/VWLW+P↔β1PL1 PL1=β1PLWi LW+P↔βiPLi PLi=βiPLW^i n LW+P↔βnPLn PLn=βnPLW^n
The overall ATPase activity at each ligand concentration is calculated from the concentration of each protein species PLi and the corresponding ATPase activity Vi , (9) V=V0+∑i=1nPLi Vi
This formalism was used to describe the effect of the NBD amphiphiles on P–gp’s ATPase activity, considering a distinct ATPase activity for P–gp with a different number of amphiphile molecules in the binding pocket.

[1] = Equation (9), local concentrations, n = 1 binding sites, read-out: Kd, microscopic dissociation constant
[2] = Equation (9), local concentrations, n = 2 binding sites, read-out: Kd, microscopic dissociation constant
[3] = Equation (9), local concentrations, n = 3 binding sites, read-out: Kd, microscopic dissociation constant
[4] = Equation (9), local concentrations, n = 4 binding sites, read-out: Kd, microscopic dissociation constant
[5] = Equation (9), local concentrations, n = 5 binding sites, read-out: Kd, microscopic dissociation constant
[6] = Equation (9), n = 3, read-out: β1, macroscopic binding constant of the first ligand (converted)
[7] = Equation (9), n = 4, read-out: β1, macroscopic binding constant of the first ligand (converted)
[8] = Equation (9), n = 5, read-out: β1, macroscopic binding constant of the first ligand (converted)
[9] = Equation (S1), total modulator concentration, no constraint between K1 and K2, [75% confidence interval], read-out: K1, dissociation constant for P–gp activation
[10] = Equation (S1), total modulator concentration, no constraint between K1 and K2, [75% confidence interval], read-out: K2, dissociation constant for P–gp inhibition
[11] = Equation (S1), constraint K1≤K2 for NBD–C8
[12] = Equation (S1), no constraint between K1 and K2, [75% confidence interval]
[13] = Equation (S1), only activation for NBD–C4, constraint K1≤K2 for NBD–C8 and NBD–LysoMPE, [75% confidence interval]
[14] = Equation (S1), total modulator concentration, constraint K1≤K2 for NBD–C8 and NBD–LysoMPE, [75% confidence interval], read-out: K2, dissociation constant for P–gp inhibition
[15] = Equation (S1), no constraint between K1 and K2, [75% confidence interval], listed as NBD-C8

SMILES	Ki (mP–gp)	Kd (mouse P–gp (mP–gp); [1])	Kd (mouse P–gp (mP–gp); [2])	Kd (mouse P–gp (mP–gp); [3])	Kd (mouse P–gp (mP–gp); [4])	Kd (mouse P–gp (mP–gp); [5])	V1, ATPase activity of P–gp with 1 amphiphile bound (mouse P–gp (mP–gp); Equation (9), n = 1)	V1, ATPase activity of P–gp with 1 amphiphile bound (mouse P–gp (mP–gp); Equation (9), n = 2)	V2, ATPase activity of P–gp with 2 amphiphiles bound (mouse P–gp (mP–gp); Equation (9), n = 2)	V1, ATPase activity of P–gp with 1 amphiphile bound (mouse P–gp (mP–gp); Equation (9), n = 3)	V2, ATPase activity of P–gp with 2 amphiphiles bound (mouse P–gp (mP–gp); Equation (9), n = 3)	V3, ATPase activity of P–gp with 3 amphiphiles bound (mouse P–gp (mP–gp); Equation (9), n = 3)	Kd (mouse P–gp (mP–gp); [6])	V1, ATPase activity of P–gp with 1 amphiphile bound (mouse P–gp (mP–gp); Equation (9), n = 4)	V2, ATPase activity of P–gp with 2 amphiphiles bound (mouse P–gp (mP–gp); Equation (9), n = 4)	V3, ATPase activity of P–gp with 3 amphiphiles bound (mouse P–gp (mP–gp); Equation (9), n = 4)	V4, ATPase activity of P–gp with 4 amphiphiles bound (mouse P–gp (mP–gp); Equation (9), n = 4)	Kd (mouse P–gp (mP–gp); [7])	V1, ATPase activity of P–gp with 1 amphiphile bound (mouse P–gp (mP–gp); Equation (9), n = 5)	V2, ATPase activity of P–gp with 2 amphiphiles bound (mouse P–gp (mP–gp); Equation (9), n = 5)	other results
CCCCCCCCCCCCCC(=O)OCC(O)COP(=O)(O)OCCNc1ccc([N+](=O)[O-])c2nonc12 (centres unmarked) [NBD–LysoMPE]	23 µM	20 µM	6 µM	3 µM	3 µM	3 µM	0%	122%	0%	99%	146%	0%	1.09 µM	100%	100%	129%	0%	0.714 µM	100%	100%	V3, ATPase activity of P–gp with 3 amphiphiles bound (mouse P–gp (mP–gp); Equation (9), n = 5): 116%; V4, ATPase activity of P–gp with 4 amphiphiles bound (mouse P–gp (mP–gp); Equation (9), n = 5): 97%; V5, ATPase activity of P–gp with 5 amphiphiles bound (mouse P–gp (mP–gp); Equation (9), n = 5): 0%; Kd (mouse P–gp (mP–gp); [8]): 0.588 µM; Kd (mouse P–gp (mP–gp); [9]): > 5 µM; Kd (mouse P–gp (mP–gp); [10]): ≤ 15 µM; V2, residual activity at infinite modulator concentration (mouse P–gp (mP–gp); [11]): 0%; V1, maximal ATPase activation (mouse P–gp (mP–gp); Equation (S1), in any case (with or without constraints on K1, K2)): < 126%; V2, residual activity at infinite modulator concentration (mouse P–gp (mP–gp); [12]): 0%; Emax (mouse P–gp (mP–gp); [12]): 102%; Emax (mouse P–gp (mP–gp); [13]): 106%; Effect on P–gp ATPase activity (mouse P–gp (mP–gp)): mostly inhibition
CCCCNc1ccc([N+](=O)[O-])c2nonc12 [NBD–C4]	14 µM	75 µM	18 µM	11 µM	7 µM	9 µM	703%	100%	535%	109%	109%	512%	3.57 µM	110%	110%	110%	501%	1.85 µM	110%	110%	number of binding sites n giving agreement between the two estimates of the partition coefficient (mP–gp; re-analysis of IAAP displacement, IAAP displaced for i ≥ n−1): 5; V3, ATPase activity of P–gp with 3 amphiphiles bound (mouse P–gp (mP–gp); Equation (9), n = 5): 110%; V4, ATPase activity of P–gp with 4 amphiphiles bound (mouse P–gp (mP–gp); Equation (9), n = 5): 259%; V5, ATPase activity of P–gp with 5 amphiphiles bound (mouse P–gp (mP–gp); Equation (9), n = 5): 491%; Kd (mouse P–gp (mP–gp); [8]): 1.82 µM; K2, dissociation constant for P–gp inhibition (mouse P–gp (mP–gp); Equation (S1), total modulator concentration, constraint K1≤K2 for NBD–C8 and NBD–LysoMPE, [75% confidence interval]): outside the concentration range studied; Kd (mouse P–gp (mP–gp); [14]): > 60 µM; Emax (mouse P–gp (mP–gp); [13]): 734%; Effect on P–gp ATPase activity (mouse P–gp (mP–gp)): activation
CCCCCCCCNc1ccc([N+](=O)[O-])c2nonc12 [NBD–C8]	4 µM	3 µM	11 µM	4 µM	4 µM	6 µM	286%	388%	0%	112%	403%	65%	1.28 µM	113%	260%	317%	62%	1 µM	122%	275%	Kd (mouse P–gp (mP–gp); Equation (9), n = 2, read-out: β1, macroscopic binding constant of the first ligand (converted)): 5.26 µM; V3, ATPase activity of P–gp with 3 amphiphiles bound (mouse P–gp (mP–gp); Equation (9), n = 5): 253%; V4, ATPase activity of P–gp with 4 amphiphiles bound (mouse P–gp (mP–gp); Equation (9), n = 5): 253%; V5, ATPase activity of P–gp with 5 amphiphiles bound (mouse P–gp (mP–gp); Equation (9), n = 5): 0%; Kd (mouse P–gp (mP–gp); [8]): 1.16 µM; Kd (mouse P–gp (mP–gp); [14]): 29 µM; Kd (mouse P–gp (mP–gp); [9]): 17 µM; Kd (mouse P–gp (mP–gp); [10]): 29 µM; V2, residual activity at infinite modulator concentration (mouse P–gp (mP–gp); [11]): 0%; V1, maximum activation (mouse P–gp (mP–gp); [15]): 494 [380, 3000] %; V2, residual activity at infinite modulator concentration (mouse P–gp (mP–gp); [15]): 0 [0, 103] %; V2, residual activity at infinite modulator concentration (mouse P–gp (mP–gp); Equation (S1), no constraint between K1 and K2, [75% confidence interval], listed as NBD‐C8): 0%; Emax (mouse P–gp (mP–gp); [12]): 497%; V1, maximum activation (mouse P–gp (mP–gp); [13]): 494 % of the basal ATPase activity; V1, maximum activation (mouse P–gp (mP–gp); Equation (S1), only activation for NBD–C4, constraint K1≤K2 for NBD–C8 and NBD–LysoMPE, [75% confidence interval], listed as NBD-C8): 494 [380, 598] % of the basal ATPase activity; Emax (mouse P–gp (mP–gp); [13]): 497%; Effect on P–gp ATPase activity (mouse P–gp (mP–gp)): both activation and inhibition
